What follows are compounds tested on Elongator complex protein 1 (ELP1, also referred to as IKBKAP) (assay: IKBKAP-HTRF assay (IKBKAP protein in lysates of FD patient-derived fibroblasts)). Settings: 48 hours incubation, 7-point concentration curve.
Type: cell-based, human
Experimental: The assay is used for the quantitative determination of Elongator complex protein 1 (ELP1, also referred to as IKBKAP) concentration in cell lysates using the HTRF® (Homogeneous Time-Resolved Fluorescence) technology. IKBKAP is detected in a sandwich HTRF assay by use of an anti-IKAP antibody labeled with a donor and an anti-IKAP antibody labeled with an acceptor.
Cells were thawed and incubated in DMEM-10% FBS for 72 hours. Cells were trypsinized, counted, and re-suspended to a concentration of 50,000 cells/mL in DMEM-10% FBS. A 199 μL aliquot of the cell suspensions were plated at 10,000 cells per well in a 96 well microtiter plate and incubated for 3 to 5 hours. […] Test compounds were serially diluted 3.16-fold in 100% DMSO to generate a 7-point concentration curve. A 1 μL aliquot of 200× compound solution was transferred to cell-containing wells, and cells were incubated for 48 hours in a cell culture incubator (37° C., 5% CO2, 100% relative humidity). Triplicate samples were set up for each compound concentration. After 48 hours, the supernatant was removed from the cells and 50 μL of the 1×LB4 lysis buffer, containing protease inhibitors, was added to the cells and incubated with shaking at room temperature for 1 hour. A 36 μL aliquot of this lysate was subsequently transferred to the 384-well plate containing 4 μL of the antibody solution (1:50 dilution of anti IKAP d2 and anti-IKAP K(9+8) in detection buffer). The 384-well plate was then centrifuged for 1 minute to bring the solutions to the bottom of the plate and incubated overnight at 4° C. Fluorescence for each well of the plate at 665 nm and 620 nm was measured was on the EnVision plate reader (Perkin Elmer). The ΔF for each sample is calculated by:
[formula] wherein Signal is the normalized fluorescence for each sample well and Blank is the average normalized average fluorescence for the Blank control wells.
The maximum fold increase (MFI) in IKBKAP protein abundance for compounds of Formula (I) or a form thereof relative to the vehicle control are provided in Table 1. MFI was calculated by dividing the ΔF value for each sample well by the sample ΔF for the vehicle control wells.
The EC2x for IKBKAP protein expression obtained from the 7-point concentration curve generated for each test compound according to the protocol in Biological Example 1 are also provided in Table 1. The term “EC2x for IKBKAP protein expression” is defined as the concentration of test compound that is effective in producing two times the amount of IKBKAP protein in a FD patient cell compared to the amount produced from the DMSO vehicle control.

Q: For `C[C@H](N)C(F)c1sc2c(NCc3cccs3)cc(Cl)nc2c1Cl` (stereo partly drawn) [Compound 130, 2-[(2S)-2-amino-1-fluoropropyl]-3,5-dichloro-N-[(thiophen-2-yl)methyl]thieno[3,2-b]pyridin-7-amine], which “EC2x for IKBKAP protein expression (concentration producing two times the amount of IKBKAP protein vs DMSO vehicle control)” value is on record?
A: The value was “***** (≤0.005 μM is indicated by five stars (*****))”.

Q: And the “MFI (maximum fold increase in IKBKAP protein abundance relative to the vehicle control)” value?
A: The value was “***** (>4.9 is indicated by five stars (*****))”.

Q: What does the source list for `N[C@H](Cc1sc2c(NCc3ccco3)cc(Cl)nc2c1Cl)C(=O)O` [Compound 121, 3-(3,5-dichloro-7-{[(furan-2-yl)methyl]amino}thieno[3,2-b]pyridin-2-yl)-D-alanine]?
A: EC2x for IKBKAP protein expression (concentration producing two times the amount of IKBKAP protein vs DMSO vehicle control): **** (between >0.005 μM and ≤0.02 μM is indicated by four stars (****)); MFI (maximum fold increase in IKBKAP protein abundance relative to the vehicle control): **** (between >3.9 and ≤4.9 is indicated by four stars (****))

Q: Which results are given for `Cc1c([C@@H](C)[C@H](C)N)sc2c(NCc3ccco3)cc(Cl)nc12` [Compound 151, 2-[(2S,3S)-3-aminobutan-2-yl]-5-chloro-N-[(furan-2-yl)methyl]-3-methylthieno[3,2-b]pyridin-7-amine]?
A: EC2x for IKBKAP protein expression (concentration producing two times the amount of IKBKAP protein vs DMSO vehicle control): *** (between >0.02 μM and ≤0.5 μM is indicated by three stars (***)); MFI (maximum fold increase in IKBKAP protein abundance relative to the vehicle control): ** (between >1.9 and ≤2.9 is indicated by two stars (**))

Q: `N[C@@H](CO)Cc1sc2c(NCc3nccs3)cc(Cl)nc2c1Br` [Compound 71, (2R)-2-amino-3-(3-bromo-5-chloro-7-{[(1,3-thiazol-2-yl)methyl]amino}thieno[3,2-b]pyridin-2-yl)propan-1-ol] was tested. Which “EC2x for IKBKAP protein expression (concentration producing two times the amount of IKBKAP protein vs DMSO vehicle control)” value did it give?
A: The value was “***** (≤0.005 μM is indicated by five stars (*****))”.

Q: And the “MFI (maximum fold increase in IKBKAP protein abundance relative to the vehicle control)” value?
A: The value was “***** (>4.9 is indicated by five stars (*****))”.

Q: Which “EC2x for IKBKAP protein expression (concentration producing two times the amount of IKBKAP protein vs DMSO vehicle control)” value does the source give for `C[C@H](N)Cc1sc2c(NCc3cccs3)cc(C#N)nc2c1Cl` [Compound 112, 2-[(2S)-2-aminopropyl]-3-chloro-7-{[(thiophen-2-yl)methyl]amino}thieno[3,2-b]pyridine-5-carbonitrile] here?
A: Its value is “***** (≤0.005 μM is indicated by five stars (*****))”.

Q: And the “MFI (maximum fold increase in IKBKAP protein abundance relative to the vehicle control)” value?
A: The value was “***** (>4.9 is indicated by five stars (*****))”.

Q: `C[C@H](N)c1cc2nc(Cl)cc(NCc3ccco3)c2s1` [Compound 24, 2-[(1S)-1-aminoethyl]-5-chloro-N-[(furan-2-yl)methyl]thieno[3,2-b]pyridin-7-amine] was tested. Which “EC2x for IKBKAP protein expression (concentration producing two times the amount of IKBKAP protein vs DMSO vehicle control)” value did it give?
A: Its value is “* (An EC2x>1 μM is indicated by one star (*))”.

Q: What about the “MFI (maximum fold increase in IKBKAP protein abundance relative to the vehicle control)” value of the same compound?
A: Its value is “** (between >1.9 and ≤2.9 is indicated by two stars (**))”.

Q: With `C[C@H](N)Cc1sc2c(NCc3cccs3)cc(C#N)nc2c1C#N` [Compound 102, 2-[(2S)-2-aminopropyl]-7-{[(thiophen-2-yl)methyl]amino}thieno[3,2-b]pyridine-3,5-dicarbonitrile] as the compound, how does the “EC2x for IKBKAP protein expression (concentration producing two times the amount of IKBKAP protein vs DMSO vehicle control)” value read?
A: The value was “***** (≤0.005 μM is indicated by five stars (*****))”.

Q: What about the “MFI (maximum fold increase in IKBKAP protein abundance relative to the vehicle control)” value of the same compound?
A: Its value is “***** (>4.9 is indicated by five stars (*****))”.

Q: `C[C@H](N)C(F)c1sc2c(NCc3ccco3)cc(Cl)nc2c1Br` (stereo partly drawn) [Compound 154, 2-[(2S)-2-amino-1-fluoropropyl]-3-bromo-5-chloro-N-[(furan-2-yl)methyl]thieno[3,2-b]pyridin-7-amine] was tested. Which “EC2x for IKBKAP protein expression (concentration producing two times the amount of IKBKAP protein vs DMSO vehicle control)” value did it give?
A: Its value is “***** (≤0.005 μM is indicated by five stars (*****))”.

Q: And the “MFI (maximum fold increase in IKBKAP protein abundance relative to the vehicle control)” value?
A: The value was “**** (between >3.9 and ≤4.9 is indicated by four stars (****))”.

Q: Which “EC2x for IKBKAP protein expression (concentration producing two times the amount of IKBKAP protein vs DMSO vehicle control)” value does the source give for `Clc1cc(NCc2nccs2)c2scc(Cl)c2n1` [Compound 8, 3,5-dichloro-N-[(1,3-thiazol-2-yl)methyl]thieno[3,2-b]pyridin-7-amine] here?
A: The value was “*** (between >0.02 μM and ≤0.5 μM is indicated by three stars (***))”.

Q: And the “MFI (maximum fold increase in IKBKAP protein abundance relative to the vehicle control)” value?
A: The value was “***** (>4.9 is indicated by five stars (*****))”.

Q: Which “EC2x for IKBKAP protein expression (concentration producing two times the amount of IKBKAP protein vs DMSO vehicle control)” value does the source give for `N[C@@H](CF)Cc1sc2c(NCc3ccco3)cc(Cl)nc2c1Cl` [Compound 94, 2-[(2R)-2-amino-3-fluoropropyl]-3,5-dichloro-N-[(furan-2-yl)methyl]thieno[3,2-b]pyridin-7-amine] here?
A: The value was “***** (≤0.005 μM is indicated by five stars (*****))”.

Q: What about the “MFI (maximum fold increase in IKBKAP protein abundance relative to the vehicle control)” value of the same compound?
A: Its value is “**** (between >3.9 and ≤4.9 is indicated by four stars (****))”.

Q: Which “EC2x for IKBKAP protein expression (concentration producing two times the amount of IKBKAP protein vs DMSO vehicle control)” value does the source give for `C[C@H](N)Cc1sc2c(NCc3nccs3)cc(Cl)nc2c1Cl` [Compound 38, 2-[(2S)-2-aminopropyl]-3,5-dichloro-N-[(1,3-thiazol-2-yl)methyl]thieno[3,2-b]pyridin-7-amine] here?
A: Its value is “***** (≤0.005 μM is indicated by five stars (*****))”.

Q: And the “MFI (maximum fold increase in IKBKAP protein abundance relative to the vehicle control)” value?
A: Its value is “***** (>4.9 is indicated by five stars (*****))”.

Q: Which “EC2x for IKBKAP protein expression (concentration producing two times the amount of IKBKAP protein vs DMSO vehicle control)” value does the source give for `N[C@@H](CF)Cc1sc2c(NCc3nccs3)cc(Cl)nc2c1Cl` [Compound 90, 2-[(2R)-2-amino-3-fluoropropyl]-3,5-dichloro-N-[(1,3-thiazol-2-yl)methyl]thieno[3,2-b]pyridin-7-amine] here?
A: Its value is “***** (≤0.005 μM is indicated by five stars (*****))”.

Q: What about the “MFI (maximum fold increase in IKBKAP protein abundance relative to the vehicle control)” value of the same compound?
A: The value was “***** (>4.9 is indicated by five stars (*****))”.

Q: What does the source list for `N[C@@H](CCF)Cc1sc2c(NCc3nccs3)cc(Cl)nc2c1Br` [Compound 88, 2-[(2S)-2-amino-4-fluorobutyl]-3-bromo-5-chloro-N-[(1,3-thiazol-2-yl)methyl]thieno[3,2-b]pyridin-7-amine]?
A: EC2x for IKBKAP protein expression (concentration producing two times the amount of IKBKAP protein vs DMSO vehicle control): ***** (≤0.005 μM is indicated by five stars (*****)); MFI (maximum fold increase in IKBKAP protein abundance relative to the vehicle control): ***** (>4.9 is indicated by five stars (*****))

Q: How did the “EC2x for IKBKAP protein expression (concentration producing two times the amount of IKBKAP protein vs DMSO vehicle control)” value turn out when `Cc1c([C@H](C)[C@H](C)N)sc2c(NCc3ccco3)cc(Cl)nc12` [Compound 150, 2-[(2R,3S)-3-aminobutan-2-yl]-5-chloro-N-[(furan-2-yl)methyl]-3-methylthieno[3,2-b]pyridin-7-amine] was run?
A: The value was “***** (≤0.005 μM is indicated by five stars (*****))”.

Q: And the “MFI (maximum fold increase in IKBKAP protein abundance relative to the vehicle control)” value?
A: The value was “***** (>4.9 is indicated by five stars (*****))”.

Q: Which “EC2x for IKBKAP protein expression (concentration producing two times the amount of IKBKAP protein vs DMSO vehicle control)” value does the source give for `C[C@H](N)Cc1sc2c(NCc3ccco3)cc(Cl)nc2c1C#N` [Compound 109, 2-[(2S)-2-aminopropyl]-5-chloro-7-{[(furan-2-yl)methyl]amino}thieno[3,2-b]pyridine-3-carbonitrile] here?
A: Its value is “***** (≤0.005 μM is indicated by five stars (*****))”.

Q: And the “MFI (maximum fold increase in IKBKAP protein abundance relative to the vehicle control)” value?
A: The value was “***** (>4.9 is indicated by five stars (*****))”.

Q: Which “EC2x for IKBKAP protein expression (concentration producing two times the amount of IKBKAP protein vs DMSO vehicle control)” value does the source give for `C[C@H](N)C(O)c1sc2c(NCc3cccs3)cc(Cl)nc2c1Br` (stereo partly drawn) [Compound 155, (2S)-2-amino-1-(3-bromo-5-chloro-7-{[(thiophen-2-yl)methyl]amino}thieno[3,2-b]pyridin-2-yl)propan-1-ol] here?
A: The value was “* (An EC2x>1 μM is indicated by one star (*))”.

Q: What about the “MFI (maximum fold increase in IKBKAP protein abundance relative to the vehicle control)” value of the same compound?
A: Its value is “* (An MFI≤1.9 is indicated by one star (*))”.

— patent US12384797B2, “Thioeno[3,2-b] pyridin-7-amine compounds for treating familial dysautonomia” (PTC THERAPEUTICS, INC., priority 2019, dated 2025)
